Measurements taken from patent publication US9663533B2, “Thieno[3,2-C]pyridin-4(5H)-ones as BET inhibitors” (GlaxoSmithKline LLC, priority 2012, dated 2017).
Counter-ions that a name gives are not always drawn.

Each molecule was assayed on LPS induced IL-6 secretion from human whole blood (assay: Quantification of LPS induced IL-6 secretion from human whole blood). Conditions: LPS 200 ng/mL, 24 hours, MSD ELISA, read-out: pIC50, LPS induced IL-6 secretion (converted).
Assay type: cell-based
Text: Quantification of LPS Induced IL-6 Secretion from Human Whole Blood
Activation of monocytic cells by agonists of toll-like receptors such as bacterial lipopolysaccharide (LPS) leads to the activation of intracellular signaling pathways resulting in the production of key pro-inflammatory mediators including IL-6. Such pathways are widely considered to be central to the pathophysiology of a range of auto-immune and inflammatory disorders.
The impact of bromodomain inhibitors on IL-6 release was assessed in an LPS-stimulated human whole blood assay. Briefly, serial dilutions of test compounds were prepared in DMSO and 1 μL of the diluted compounds or vehicle (DMSO) was added to each well in a 96-well cell culture plate. Fresh blood was collected in heparinized tubes by venipuncture from volunteers with consent, and 130 uL/well was added in the culture plate already containing the compounds. The plates were then incubated for 30 min at 37° C. and 5% CO2 before the addition of 10 μl of 2.8 μg/mL LPS diluted in 1% BSA (LPS from Salmonella typhosa; Sigma L 6386 at a final concentration of 200 ng/mL). After further incubation for 24 hours at 37° C. and 5% CO2, 140 μl of PBS were added to each well. The plates were then sealed, shaken for 10 minutes and then centrifuged for 10 minutes at 2000 rpm. 100 μl of the supernatant were removed and IL-6 levels quantified using an MSD ELISA (MesoScale Discovery technology). Concentration response curves for each compound were generated and an IC50 values were calculated.

Compound | IC50
CCCC[C@@H]1CN(Cc2cc3c(=O)n(C)cc(-c4ccc(OC)c(OC)c4)c3s2)CCN1 [Example 97, (R)-2-((3-butylpiperazin-1-yl)methyl)-7-(3,4-dimethoxyphenyl)-5-methylthieno[3,2-c]pyridin-4(5H)-one] | ≤ 10 µM
Cn1cc(-c2ccnc(OCC3CCOCC3)c2)c2sc(CN3CCN(S(C)(=O)=O)CC3)cc2c1=O [Example 7, 5-methyl-2-((4-(methylsulphonyl)piperazin-1-yl)methyl)-7-(2-((tetrahydro-2H-pyran-4-yl)methoxy)pyridin-4-yl)thieno[3,2-c]pyridin-4(5H)-one] | ≤ 10 µM
CC(=O)Nc1cc(-c2cn(C)c(=O)c3cc(CN4CCN(S(C)(=O)=O)C[C@H]4C)sc23)ccn1 [Example 119, (R)-N-(4-(5-methyl-2-((2-methyl-4-(methylsulphonyl)piperazin-1-yl)methyl)-4-oxo-4,5-dihydrothieno[3,2-c]pyridin-7-yl)pyridin-2-yl)acetamide] | ≤ 10 µM

The remaining lines, values ahead:

IC50 | Compound
≤ 10 µM | CC(Oc1cncc(-c2cn(C)c(=O)c3cc(CN4CCN(S(C)(=O)=O)CC4)sc23)c1)c1ccccc1 (stereo not drawn) [Example 1, 5-methyl-2-((4-(methylsulphonyl)piperazin-1-yl)methyl)-7-(5-(1-phenylethoxy)pyridin-3-yl)thieno[3,2-c]pyridin-4(5H)-one hydrochloride]
≤ 10 µM | C[C@@H]1CN(S(C)(=O)=O)CCN1Cc1cc2c(=O)n(C)cc(-c3ccncc3OCC3CC3)c2s1 [Example 168, (R)-7-(3-(cyclopropylmethoxy)pyridin-4-yl)-5-methyl-2-((2-methyl-4-(methylsulfonyl)piperazin-1-yl)methyl)thieno[3,2-c]pyridin-4(5H)-one]
≤ 10 µM | CN1CCCN(Cc2cc3c(=O)n(C)cc(-c4cccc(OCc5ccccc5)c4)c3s2)CC1 [Example 40, 7-(3-(benzyloxy)phenyl)-5-methyl-2-((4-methyl-1,4-diazepan-1-yl)methyl)thieno[3,2-c]pyridin-4(5H)-one, Hydrochloride]
≤ 10 µM | CC(Oc1cncc(-c2cn(C)c(=O)c3cc(CN4CCN(S(C)(=O)=O)CC4)sc23)c1)c1ccccn1 (racemic) [Example 3, (±)-5-methyl-2-((4-(methylsulphonyl)piperazin-1-yl)methyl)-7-(5-(1-(pyridin-2-yl)ethoxy)pyridin-3-yl)thieno[3,2-c]pyridin-4(5H)-one]

The molecules below were run on Bromodomains BRD2, BRD3, BRD4 and BRDT, mutated proteins (BD1 or BD2) (assay: TR-FRET assay: affinity of the fluoroligand for mutated versus non-mutated binding domain). Conditions: single residue mutations in the acetyl lysine binding pocket.
Design: species or system Human
Description: (§1) Binding was assessed using a time resolved fluorescent resonance energy transfer binding assay. This utilises a 6 His purification tag at the N-terminal of the proteins as an epitope for an anti-6 His antibody labeled with Europium chelate (PerkinElmer AD0111) allowing binding of the Europium to the proteins which acts as the donor fluorophore. A small molecule, high affinity binder of the bromodomains BRD2, BRD3, BRD4 and BRDT has been labeled with Alexa Fluor647 (Reference Compound X) and this acts as the acceptor in the FRET pair.
The binding of the compounds of formula (I) to Bromodomains BRD2, BRD3, BRD4 and BRDT was assessed using mutated proteins to detect differential binding to either Binding Domain 1 (BD1) or Binding Domain 2 (BD2) on the bromodomain. These single residue mutations in the acetyl lysine binding pocket greatly lower the affinity of the fluoroligand (Reference Compound X) for the mutated domain (>1000 fold selective for the non-mutated domain). Therefore in the final assay conditions, binding of the fluoroligand to the mutated domain cannot be detected and subsequently the assay is suitable to determine the binding of compounds to the single non-mutated bromodomain. […]

Compound | Selectivity of the fluoroligand for the non-mutated domain over the mutated domain
COc1ccc2c(c1)C(c1ccc(Cl)cc1)=N[C@@H](CC(=O)NCCCCCNC(=O)CCCCCC1(C)/C(=C/C=C/C=C/C3=[N+](CCCCS(=O)(=O)O)c4ccc(S(=O)(=O)O)cc4C3(C)C)N(CCCCS(=O)(=O)[O-])c3ccc(S(=O)(=O)O)cc31)c1nnc(C)n1-2 (stereo partly drawn) [Reference Compound X] | > 1000 fold

What follows are molecules tested on Bromodomain BRD4, mutated proteins (BD1 or BD2) (assay: FP assay: affinity of the fluoroligand for mutated versus non-mutated binding domain). Conditions: single residue mutations in the acetyl lysine binding pocket.
Design: species or system Human
Description: as §1, with “[…]” for “time resolved fluorescent resonance energy transfer”
The binding of the compounds of formula (I) to Bromodomain BRD4 was assessed using mutated proteins to detect differential binding to either Binding Domain 1 (BD1) or Binding Domain 2 (BD2) on the bromodomain. These single residue mutations in the acetyl lysine binding pocket greatly lower the affinity of the fluoroligand (Reference Compound X) for the mutated domain (>1000 fold selective for the non-mutated domain). Therefore in the final assay conditions, binding of the fluoroligand to the mutated domain cannot be detected and subsequently the assay is suitable to determine the binding of compounds to the single non-mutated bromodomain.
Protein Production: Recombinant Human Bromodomains [BRD4 (1-477) (Y97A) and (Y390A)] were expressed in E. coli cells (in pET15b vector) with a 6-His tag at the N-terminal. […]

Compound | Selectivity of the fluoroligand for the non-mutated domain over the mutated domain
COc1ccc2c(c1)C(c1ccc(Cl)cc1)=N[C@@H](CC(=O)NCCCCCNC(=O)CCCCCC1(C)/C(=C/C=C/C=C/C3=[N+](CCCCS(=O)(=O)O)c4ccc(S(=O)(=O)O)cc4C3(C)C)N(CCCCS(=O)(=O)[O-])c3ccc(S(=O)(=O)O)cc31)c1nnc(C)n1-2 (stereo partly drawn) [Reference Compound X] | > 1000 fold
